Measurements: patent US8178579B2, “Dioxanes and uses thereof” (President and Fellows of Harvard College, priority 2001, dated 2012)

Biological target: T1, HDAC6 (Homo sapiens, UniProt Q9UBN7)
T1 sequence (Q9UBN7 1-1215): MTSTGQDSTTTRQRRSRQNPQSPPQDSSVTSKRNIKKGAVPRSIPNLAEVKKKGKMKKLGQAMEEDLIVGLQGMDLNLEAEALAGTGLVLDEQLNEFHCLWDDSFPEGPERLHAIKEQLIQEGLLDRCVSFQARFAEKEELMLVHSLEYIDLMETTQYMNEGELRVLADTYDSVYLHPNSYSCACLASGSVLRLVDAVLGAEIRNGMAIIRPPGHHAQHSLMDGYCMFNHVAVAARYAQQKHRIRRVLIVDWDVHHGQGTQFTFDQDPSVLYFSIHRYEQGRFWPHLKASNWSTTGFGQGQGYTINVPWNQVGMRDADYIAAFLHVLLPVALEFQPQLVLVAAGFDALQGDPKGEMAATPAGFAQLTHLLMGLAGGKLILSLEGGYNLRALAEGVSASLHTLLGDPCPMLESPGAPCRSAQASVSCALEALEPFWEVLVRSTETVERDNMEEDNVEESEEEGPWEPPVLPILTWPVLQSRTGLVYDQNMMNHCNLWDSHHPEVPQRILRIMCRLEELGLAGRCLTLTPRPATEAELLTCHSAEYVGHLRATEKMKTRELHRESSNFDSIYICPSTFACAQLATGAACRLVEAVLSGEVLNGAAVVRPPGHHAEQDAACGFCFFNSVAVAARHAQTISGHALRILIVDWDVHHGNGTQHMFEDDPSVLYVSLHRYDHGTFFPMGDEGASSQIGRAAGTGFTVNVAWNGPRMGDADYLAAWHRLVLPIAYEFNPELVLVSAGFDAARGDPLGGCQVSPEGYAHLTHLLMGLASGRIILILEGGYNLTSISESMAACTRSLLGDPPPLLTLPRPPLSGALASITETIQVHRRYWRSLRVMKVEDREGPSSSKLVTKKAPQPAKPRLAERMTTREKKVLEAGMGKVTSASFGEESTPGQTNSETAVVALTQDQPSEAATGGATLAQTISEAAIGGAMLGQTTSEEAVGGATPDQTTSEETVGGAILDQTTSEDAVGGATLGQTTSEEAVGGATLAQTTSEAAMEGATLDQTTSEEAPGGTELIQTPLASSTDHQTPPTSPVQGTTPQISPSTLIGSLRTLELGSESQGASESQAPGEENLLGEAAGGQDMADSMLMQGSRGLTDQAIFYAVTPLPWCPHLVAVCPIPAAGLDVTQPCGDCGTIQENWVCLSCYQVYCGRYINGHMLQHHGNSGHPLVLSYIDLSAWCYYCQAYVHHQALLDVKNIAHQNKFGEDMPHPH
Test: HDAC assay, [3H]acetate-incorporated histones with immunoprecipitated FLAG-tagged HDAC6 (HDAC6F)
Type: biochemical
Design: made in house; host or cells: TAg Jurkat cells, transient transfection, anti-FLAG M2 immunoprecipitation
Conditions: [3H]-labeled histones, n=3
Protocol: Cell culture and Transfections. TAg-Jurkat cells were transfected by electroporation with 5 μg of FLAG-epitope-tagged pBJ5 constructs (as described in ref. 5c) for expression of recombinant proteins. Cells were harvested 48 h posttransfection.
HDAC assays. […] Compounds were added in DMSO such that final assay concentrations were 1% DMSO. IC50s were calculated using Prism 3.0 software. Curve fitting was done without constraints using the program's Sigmoidal-Dose Response parameters. All data points were acquired in duplicate and IC50s are calculated from the composite results of at least two separate experiments.
Tubulin and MAPs were isolated from bovine brain as described [See http://mitchison.med.harvard.edu/protocols/tubprep.html]. Whole brain and fractions from phosphocellulose chromatography were blotted for HDAC6 and acetylated α-tubulin. Cultured hippocampal neurons from dissociated 1-day old rat brains were transfected with an enhanced green fluorescent protein (EGFP)-actin construct at 4-5 days using the calcium phosphate method [E. N. Star, D. J. Kwiatkowski and V. N. Murthy, Nat. Neurosci. […] K. Miranti and M. E. Greenberg, J. Neurosci. […] Transfected cultures were allowed to grow for at least 48 h before the addition of experimental compounds.
[^3H]Acetate-incorporated histones were isolated from butyrate-treated HeLa cells as described [J. Taunton, C. […] Immunoprecipitates were incubated with acetylated histones and HDAC activity determined by scintillation counting as described [J. Taunton, C. […] TDAC assays were performed with immunoprecipitates using MAP-stabilized microtubules polymerized from MAP-rich tubulin fraction as described [C. […] Reactions were incubated (2 h) at 37° C., then incubated on ice (15 min).

Row | SMILES | inhibition of HDAC activity of wild-type HDAC6F
1 | CC(/C=C/C(=O)NO)=C\[C@@H](C)C(=O)c1ccc(N(C)C)cc1 [TSA, trichostatin A, reference compound] | only partial inhibited by TSA or tubacin
2 | O=C(CCCCCCC(=O)Nc1ccc([C@@H]2OC(c3ccc(CO)cc3)C[C@H](CSc3nc(-c4ccccc4)c(-c4ccccc4)o3)O2)cc1)NO (some centres unmarked) [tubacin] | only partial inhibited by TSA or tubacin
